The nature of this data set: Laboratory-induced black spot defect: cheese with ITS components exposed to aged cheese volatiles or hydrogen sulfide gas. Format: physicochemical. The note with it: blended in cheese, exposed to authentic cheese volatiles or H2S gas. As for the experimental part: FIGS. 4A and 4B are images of laboratory-induced black spot defects. In FIG. 4A, the various components of “ORBESEAL”-brand intra-mammary teat sealant (ITS) were blended with cheese and each spot was photographed immediately. […] Sites 4 and 5 contain bismuth subnitrate and the intact “ORBESEAL”-brand ITS formulation, respectively.
To confirm the reactivity of bismuth subnitrate as a reactant in forming bismuth Ill sulfide nanorods, additional assays were conducted to see if BSD could be purposefully recreated in the lab. In short, cheeses were manufactured with known amounts of ITS components and subjected to either the authentic volatile gasses produced by maturing cheeses or exposed directly to the hypothesized bismuth subnitrate co-reactant, hydrogen sulfide gas. […] No other ITS component formed black spots when so exposed. Furthermore, the susceptible sites formed identically black pigmentation when exposed to either authentic cheese volatiles or to hydrogen sulfide gas, thus confirming that hydrogen sulfide gas was the suspected co-reactant.

Data on one molecule can be found in patent publication US11491185B2, “Intra-mammary teat sealant formulation and method of using same to reduce or eliminate visual defects in aged cheeses” (Wisconsin Alumni Research Foundation, priority 2006, dated 2022).

Take `O=[N+]([O-])[O-].O=[N+]([O-])[O-].O=[N+]([O-])[O-].O=[N+]([O-])[O-].[Bi+3].[Bi+3].[Bi+3].[Bi+3].[Bi+3].[O-2].[OH-].[OH-].[OH-].[OH-].[OH-].[OH-].[OH-].[OH-].[OH-]` [bismuth subnitrate]: the “Formation of black pigmentation (black spots) with nanorod structures” value was “formed identical black pigmentation”.
